# Laboratory results taken from PubChem BioAssay AID190 (DTP/NCI, 2004).
# Values joined by “and” are separate entries in the source; they are usually repeats but may differ in a detail not shown here. Equal values may be shown once. Toxic doses and inconclusive results are not listed.
# Test system: AKR/Lw mice, AKR lymphoma ip, median survival T/C
# Experiment: NCI In Vivo Anticancer Drug Screen. Data for tumor model Lymphoma AKR (Transplanted) (intraperitoneal) in AKR/Lw mice
# Details: endpoint: median survival time, higher = longer survival
# Experimental: The antitumor activity of compounds was measured in mice bearing transplantable tumors. Survival or tumor size were measured and the results are expressed as the measurement made in the treated group (T) divided by the measurement made in the vehicle treated control group (C). The tumor model used in this assay is Lymphoma AKR (Transplanted) (intraperitoneal) in AKR/Lw mice
# [1] = dose: 100.0 mg/kg/injection, schedule: Q01DX001 (ip), vehicle: Klucel (hydroxypropylcellulose) (HPC)
# [2] = dose: 200.0 mg/kg/injection, schedule: Q01DX001 (ip), vehicle: Klucel (hydroxypropylcellulose) (HPC)
# [3] = dose: 400.0 mg/kg/injection, schedule: Q01DX001 (ip), vehicle: Klucel (hydroxypropylcellulose) (HPC)
smiles,measurement,setting,value
O=P1(N(CCCl)CCCl)NCCCO1 (configuration not stated),T/C,"dose: 0.5 mg/kg/injection, schedule: Q01DX015 (ip), vehicle: saline",117 % of control
same,T/C,"dose: 1.0 mg/kg/injection, schedule: Q01DX015 (ip), vehicle: saline",108 % of control
same,T/C,"dose: 1.5 mg/kg/injection, schedule: Q04DX003 (ip), vehicle: saline",91 % of control
same,T/C,"dose: 2.0 mg/kg/injection, schedule: Q01DX015 (ip), vehicle: saline",108 % of control
same,T/C,"dose: 2.0 mg/kg/injection, schedule: Q03HX032 (ip), vehicle: saline",119 % of control
same,T/C,"dose: 3.0 mg/kg/injection, schedule: Q04DX003 (ip), vehicle: saline",93 % of control
same,T/C,"dose: 3.1 mg/kg/injection, schedule: Q01DX009 (ip), vehicle: saline",100 % of control and 102 % of control
same,T/C,"dose: 4.0 mg/kg/injection, schedule: Q03HX032 (ip), vehicle: saline",117 % of control
same,T/C,"dose: 6.0 mg/kg/injection, schedule: Q01DX009 (ip), vehicle: saline",97 % of control
same,T/C,"dose: 6.0 mg/kg/injection, schedule: Q04DX003 (ip), vehicle: saline",93 % of control
same,T/C,"dose: 6.2 mg/kg/injection, schedule: Q04DX003 (ip), vehicle: saline",97 % of control
same,T/C,"dose: 6.25 mg/kg/injection, schedule: Q07DX005 (ip), vehicle: saline",112 % of control
same,T/C,"dose: 7.0 mg/kg/injection, schedule: Q01DX015 (ip), vehicle: saline",88 % of control
same,T/C,"dose: 8.0 mg/kg/injection, schedule: Q03HX032 (ip), vehicle: saline",112 % of control
same,T/C,"dose: 10.0 mg/kg/injection, schedule: Q01DX009 (ip), vehicle: saline",110 % of control and 118 % of control
same,T/C,"dose: 11.0 mg/kg/injection, schedule: Q01DX015 (ip), vehicle: saline",100 % of control
same,T/C,"dose: 12.0 mg/kg/injection, schedule: Q04DX003 (ip), vehicle: saline",97 % of control and 105 % of control
same,T/C,"dose: 12.5 mg/kg/injection, schedule: Q01DX001 (ip), vehicle: saline",92 % of control and 104 % of control and 116 % of control
same,T/C,"dose: 20.0 mg/kg/injection, schedule: Q07DX004 (ip), vehicle: saline",120 % of control
same,T/C,"dose: 24.0 mg/kg/injection, schedule: Q01DX015 (ip), vehicle: saline",100 % of control and 117 % of control
same,T/C,"dose: 25.0 mg/kg/injection, schedule: Q07DX003 (ip), vehicle: saline",152 % of control
same,T/C,"dose: 25.0 mg/kg/injection, schedule: Q10DX002 (ip), vehicle: saline",152 % of control
same,T/C,"dose: 25.0 mg/kg/injection, schedule: Q10DX004 (ip), vehicle: saline",119 % of control
same,T/C,"dose: 25.0 mg/kg/injection, schedule: Q14DX003 (ip), vehicle: saline",178 % of control
same,T/C,"dose: 25.0 mg/kg/injection, schedule: Q14DX004 (ip), vehicle: saline",103 % of control
same,T/C,"dose: 33.0 mg/kg/injection, schedule: Q09DX002 (ip), vehicle: saline",188 % of control
same,T/C,"dose: 37.5 mg/kg/injection, schedule: Q12DX002 (ip), vehicle: saline",172 % of control
same,T/C,"dose: 44.0 mg/kg/injection, schedule: Q07DX004 (ip), vehicle: saline",227 % of control
same,T/C,"dose: 50.0 mg/kg/injection, schedule: Q09DX002 (ip), vehicle: saline",160 % of control and 234 % of control (2×)
same,T/C,"dose: 50.0 mg/kg/injection, schedule: Q10DX002 (ip), vehicle: saline",186 % of control
same,T/C,"dose: 50.0 mg/kg/injection, schedule: Q12DX002 (ip), vehicle: saline",164 % of control
same,T/C,"dose: 50.0 mg/kg/injection, schedule: Q14DX003 (ip), vehicle: saline",177 % of control
same,T/C,"dose: 50.0 mg/kg/injection, schedule: Q14DX004 (ip), vehicle: saline",173 % of control
same,T/C,"dose: 50.0 mg/kg/injection, schedule: Q## X002 (ip), vehicle: saline",164 % of control
same,T/C,"dose: 65.5 mg/kg/injection, schedule: Q04DX003 (ip), vehicle: saline",236 % of control
same,T/C,"dose: 67.0 mg/kg/injection, schedule: Q07DX004 (ip), vehicle: saline",232 % of control
same,T/C,"dose: 67.0 mg/kg/injection, schedule: Q09DX002 (ip), vehicle: saline",234 % of control
same,T/C,"dose: 75.0 mg/kg/injection, schedule: Q01DX001 (ip), vehicle: saline",180 % of control and 226 % of control
same,T/C,"dose: 75.0 mg/kg/injection, schedule: Q01DX001 (ip), vehicle: water",153 % of control
same,T/C,"dose: 75.0 mg/kg/injection, schedule: Q04DX003 (ip), vehicle: saline",180 % of control
same,T/C,"dose: 75.0 mg/kg/injection, schedule: Q07DX003 (ip), vehicle: saline",200 % of control and 210 % of control and 231 % of control
same,T/C,"dose: 75.0 mg/kg/injection, schedule: Q07DX005 (ip), vehicle: saline",181 % of control
same,T/C,"dose: 75.0 mg/kg/injection, schedule: Q12DX002 (ip), vehicle: saline",226 % of control
same,T/C,"dose: 100.0 mg/kg/injection, schedule: Q01DX001 (ip), vehicle: saline with Tween-80",154 % of control
same,T/C,"dose: 100.0 mg/kg/injection, schedule: Q01DX009 (ip), vehicle: saline",112 % of control
same,T/C,"dose: 100.0 mg/kg/injection, schedule: Q07DX004 (ip), vehicle: saline",200 % of control
same,T/C,"dose: 100.0 mg/kg/injection, schedule: Q07DX005 (ip), vehicle: saline",95 % of control
same,T/C,"dose: 100.0 mg/kg/injection, schedule: Q09DX002 (ip), vehicle: saline",117 % of control and 228 % of control (2×)
same,T/C,"dose: 100.0 mg/kg/injection, schedule: Q10DX004 (ip), vehicle: saline",175 % of control
same,T/C,"dose: 100.0 mg/kg/injection, schedule: Q14DX003 (ip), vehicle: saline",235 % of control
same,T/C,"dose: 125.0 mg/kg/injection, schedule: Q07DX003 (ip), vehicle: saline",105 % of control and 110 % of control
same,T/C,"dose: 150.0 mg/kg/injection, schedule: Q01DX001 (ip), vehicle: saline with Tween-80",179 % of control
same,T/C,"dose: 150.0 mg/kg/injection, schedule: Q01DX001 (ip), vehicle: water",171 % of control and 196 % of control
same,T/C,"dose: 150.0 mg/kg/injection, schedule: Q07DX005 (ip), vehicle: saline",95 % of control
same,T/C,"dose: 150.0 mg/kg/injection, schedule: Q10DX004 (ip), vehicle: saline",209 % of control
same,T/C,"dose: 200.0 mg/kg/injection, schedule: Q01DX009 (ip), vehicle: saline",100 % of control
same,T/C,"dose: 200.0 mg/kg/injection, schedule: Q09DX002 (ip), vehicle: saline",103 % of control
same,T/C,"dose: 200.0 mg/kg/injection, schedule: Q10DX002 (ip), vehicle: saline",114 % of control
same,T/C,"dose: 300.0 mg/kg/injection, schedule: Q01DX001 (ip), vehicle: water",171 % of control and 188 % of control
same,T/C,"dose: 500.0 mg/kg/injection, schedule: Q01DX001 (ip), vehicle: saline",100 % of control
c1cc2cc3c(cc2cc1CC1=NCCc2cc4c(cc21)OCO4)OCO3,T/C,"dose: 100.0 mg/kg/injection, schedule: Q01DX001 (ip), vehicle: other",105 % of control
same,T/C,"dose: 100.0 mg/kg/injection, schedule: Q04DX003 (ip), vehicle: other",100 % of control
same,T/C,"dose: 200.0 mg/kg/injection, schedule: Q01DX001 (ip), vehicle: other",100 % of control
same,T/C,"dose: 200.0 mg/kg/injection, schedule: Q04DX003 (ip), vehicle: other",100 % of control
same,T/C,"dose: 400.0 mg/kg/injection, schedule: Q01DX001 (ip), vehicle: other",102 % of control
same,T/C,"dose: 400.0 mg/kg/injection, schedule: Q04DX003 (ip), vehicle: other",100 % of control
O=NN(CCCl)C(=O)N[C@H]1CCCC[C@@H]1Cl,T/C,"dose: 5.0 mg/kg/injection, schedule: Q04DX004 (ip), vehicle: Klucel (hydroxypropylcellulose) (HPC)",123 % of control
same,T/C,"dose: 5.0 mg/kg/injection, schedule: Q04DX004 (ip), vehicle: saline",117 % of control
same,T/C,"dose: 20.0 mg/kg/injection, schedule: Q04DX004 (ip), vehicle: Klucel (hydroxypropylcellulose) (HPC)",97 % of control
CC(C)c1ccc(C(c2c(O)c3ccccc3oc2=O)c2c(O)c3ccccc3oc2=O)cc1,T/C,[1],113 % of control
same,T/C,[2],106 % of control
same,T/C,[3],90 % of control
Clc1nnc(Nc2ccccc2)c2ccccc12,T/C,"dose: 25.0 mg/kg/injection, schedule: Q04DX003 (ip), vehicle: Klucel (hydroxypropylcellulose) (HPC)",86 % of control
same,T/C,"dose: 50.0 mg/kg/injection, schedule: Q04DX003 (ip), vehicle: Klucel (hydroxypropylcellulose) (HPC)",98 % of control
same,T/C,[1],92 % of control
same,T/C,"dose: 100.0 mg/kg/injection, schedule: Q04DX003 (ip), vehicle: Klucel (hydroxypropylcellulose) (HPC)",92 % of control
same,T/C,"dose: 100.0 mg/kg/injection, schedule: Q04DX003 (ip), vehicle: saline",100 % of control
same,T/C,[2],96 % of control
same,T/C,[3],96 % of control
c1ccc(CC(Cc2ccccc2)=[N+]2CCCC2)cc1,T/C,"dose: 100.0 mg/kg/injection, schedule: Q01DX001 (ip), vehicle: saline",97 % of control
same,T/C,"dose: 200.0 mg/kg/injection, schedule: Q01DX001 (ip), vehicle: saline",88 % of control
same,T/C,"dose: 400.0 mg/kg/injection, schedule: Q01DX001 (ip), vehicle: saline",88 % of control
